Assay results published in ChEMBL document CHEMBL1156454, “Essential requirement for sphingosine kinase 2 in a sphingolipid apoptosis pathway activated by FTY720 analogues” (J Biol Chem, 2007).
The source made the active and inactive calls. No cut-off for these calls is given here.

How the values were obtained:
Jurkat [1] = assay: Resistance index, ratio of IC50 for 2-amino-4-(4-heptyloxyphenyl)-2-methylbutanol-resistant human Jurkat SBR3 mutant cells to IC50 for human wild type Jurkat cells; format: functional
Jurkat [2] = assay: Inhibition of human 2-amino-4-(4-heptyloxyphenyl)-2-methylbutanol-resistant human Jurkat SBR3 mutant cells proliferation after 18 hrs by MTT assay; format: functional, cell-based
Jurkat [3] = assay: Inhibition of 2-amino-4-(4-heptyloxyphenyl)-2-methylbutanol-resistant human Jurkat SBR2 mutant cells proliferation after 18 hrs by MTT assay; format: functional, cell-based
Jurkat [4] = assay: Inhibition of wild type human Jurkat cells after 18 hrs by MTT assay; format: functional, cell-based
Jurkat [5] = assay: Resistance index, ratio of IC50 for 2-amino-4-(4-heptyloxyphenyl)-2-methylbutanol-resistant human Jurkat SBR2 mutant cells to IC50 for human wild type Jurkat cells; format: functional
Jurkat [6] = assay: Inhibition of 2-amino-4-(4-heptyloxyphenyl)-2-methylbutanol-resistant human Jurkat SBR1 mutant cells proliferation after 18 hrs by MTT assay; format: functional, cell-based
Jurkat [7] = assay: Resistance index, ratio of IC50 for 2-amino-4-(4-heptyloxyphenyl)-2-methylbutanol-resistant human Jurkat SBR1 mutant cells to IC50 for human wild type Jurkat cells; format: functional
Jurkat [8] = assay: Reversal of inhibition of mitochondrial function in human Jurkat cells after 18 hrs in presence of Z-VAD-fmk; format: functional, cell-based
Splenocyte [9] = assay: Induction of apoptosis in mouse primary splenocytes assessed as cell death after 18 hrs; format: functional, cell-based
[10] = molecular target: Sphingosine kinase 1 (Homo sapiens) (UniProt Q9NYA1); assay: Inhibition of Sphk1 expressed in HEK293 cells; format: cell-based
Sphingosine kinase 1 (Homo sapiens), sequence (Q9NYA1 whole entry): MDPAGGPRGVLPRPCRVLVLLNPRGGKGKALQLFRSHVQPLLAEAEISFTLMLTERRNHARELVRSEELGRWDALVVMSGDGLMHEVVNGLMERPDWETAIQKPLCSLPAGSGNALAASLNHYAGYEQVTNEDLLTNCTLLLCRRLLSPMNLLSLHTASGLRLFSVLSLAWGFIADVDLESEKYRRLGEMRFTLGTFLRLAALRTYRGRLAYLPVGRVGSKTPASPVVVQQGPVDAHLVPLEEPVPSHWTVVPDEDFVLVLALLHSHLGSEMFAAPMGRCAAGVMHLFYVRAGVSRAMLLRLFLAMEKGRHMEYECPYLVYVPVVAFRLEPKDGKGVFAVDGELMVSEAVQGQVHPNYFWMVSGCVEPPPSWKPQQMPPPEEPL

[11] = Cell viability of Sphk2-knock out mouse embryonic fibroblasts assessed as resistant cells after 18 hrs by propidium iodide exclusion assay; format: functional, cell-based; conditions: Fibroblast
Jurkat [12] = assay: Induction of apoptosis in human Jurkat cells assessed as cell death after 18 hrs; format: functional, cell-based
Lymphocyte [13] = assay: Induction of apoptosis in MRL/MpJ-lpr/lpr mouse spleen lymphocytes assessed as increase in apoptotic cells in spleen at 1 mg/kg, ip by annexin V method; format: functional, organism-based; set-up: dose 1 mg/kg
Jurkat [14] = assay: Induction of apoptosis in human Jurkat cells assessed as PARP cleavage at 5 uM after 16 hrs; format: functional, cell-based
Jurkat [15] = assay: Induction of apoptosis in human Jurkat SBR1 cells expressing Sphk2 after 18 hrs by MTT assay; format: functional, cell-based
Spleen = assay: Drug level in MRL/MpJ-lpr/lpr mouse spleen assessed as (R)-2-amino-4-(4-(heptyloxy)phenyl)-2-methylbutyl dihydrogen phosphate levels per mg of tissue at 1 mg/kg, ip after 1 hr; format: ADME, organism-based; set-up: dose 1 mg/kg, route intraperitoneal; conditions: in vivo
Splenocyte [16] = assay: Induction of apoptosis in Sphk1-knock out mouse primary splenocytes assessed as resistant cells after 18 hrs by propidium iodide exclusion assay; format: functional, cell-based
Jurkat [17] = assay: Induction of apoptosis in human Jurkat SBR1 cells expressing Sphk1 after 18 hrs by MTT assay; format: functional, cell-based
Lymphocyte [18] = assay: Induction of apoptosis in MRL/MpJ-lpr/lpr mouse thymus lymphocytes assessed as increase in apoptotic cells in thymus at 1 mg/kg, ip by annexin V method; format: functional, organism-based; set-up: dose 1 mg/kg
Lymphocyte [19] = assay: Induction of apoptosis in MRL/MpJ-lpr/lpr mouse lymph node lymphocytes assessed as increase in apoptotic cells in lymph nodes at 1 mg/kg, ip by annexin V method; format: functional, organism-based; set-up: dose 1 mg/kg
Jurkat [20] = assay: Induction of apoptosis in human Jurkat cells assessed as activation of effector capsases after 18 hrs; format: functional, cell-based
[21] = Drug level in MRL/Mpj-lpr/lpr mouse thymus assessed as (R)-2-amino-4-(4-(heptyloxy)phenyl)-2-methylbutyl dihydrogen phosphate levels per mg of tissue at 1 mg/kg, ip after 1 hr; format: ADME, organism-based; set-up: dose 1 mg/kg, route intraperitoneal; conditions: in vivo
Jurkat [22] = assay: Induction of apoptosis in human Jurkat cells assessed as increase in cytosolic calcium levels after 8 hrs; format: functional, cell-based
Splenocyte [23] = assay: Induction of apoptosis in Sphk2-knock out mouse primary splenocytes assessed as resistant cells after 18 hrs by propidium iodide exclusion assay; format: functional, cell-based
Jurkat [24] = assay: Induction of apoptosis in human Jurkat SBR1 mutant cells assessed as activation of effector capsases after 18 hrs; format: functional, cell-based

| SMILES | Ratio IC50 (Jurkat [1]) | IC50 (Jurkat [2]) [µM] | IC50 (Jurkat [3]) [µM] | IC50 (Jurkat [4]) [µM] | Ratio IC50 (Jurkat [5]) | IC50 (Jurkat [6]) [µM] | Ratio IC50 (Jurkat [7]) | other results |
| --- | --- | --- | --- | --- | --- | --- | --- | --- |
| CCCCCCCCCCCCCC[C@@H](O)[C@@H](O)[C@@H](N)CO (single isomer, unassigned) [PHYTOSPHINGOSINE] | 1.1 | 4.12 | 5.29 | 3.75 | 1.4 | 6.57 | 1.8 | – |
| CCCCCCCCc1ccc(CCC(N)(CO)CO)cc1 | – | – | – | – | – | – | – | Activity (Jurkat [8]): Active |
| CCCCCCCOc1ccc(CC[C@@](C)(N)COP(=O)(O)O)cc1 | – | – | – | – | – | – | – | Activity (Splenocyte [9]): inactive; Activity (Jurkat [4]): inactive; Activity [10]: inactive |
| COc1cc([C@@H]2c3cc4c(cc3[C@@H](O[C@@H]3O[C@@H]5CO[C@@H](C)O[C@H]5[C@H](O)[C@H]3O)[C@H]3COC(=O)[C@H]23)OCO4)cc(OC)c1O | – | – | – | – | – | – | – | Activity (Jurkat [2]): Active; Activity (Jurkat [3]): Active; Activity (Jurkat [6]): Active |
| CCCCCCCCCCCCCCC[C@@H](O)[C@@H](N)CO [DIHYDROSPINGOSINE] | 1.8 | 6.31 | 3.68 | 3.53 | 1.3 | 4.9 | 1.4 | – |
| CCCCCCCCCCCCC/C=C/[C@@H](O)[C@@H](N)CO [SPHINGOSINE] | 1.7 | 3.38 | 2.88 | 2.01 | 1.4 | 3.48 | 1.7 | Activity [11]: inactive |
| CCCCCCCOc1ccc(CC[C@](C)(N)CO)cc1 | – | – | – | – | – | – | – | Activity (Jurkat [12]): inactive; Activity (Splenocyte [9]): inactive; Activity (Lymphocyte [13]): Active; Activity (Jurkat [14]): inactive |
| CCCCCCCOc1ccc(CC[C@@](C)(N)CO)cc1 | 3.1 | 7.12 | 7.72 | 2.32 | 3.3 | 8.72 | 3.8 | Activity (Jurkat [15]): Active; Activity (Spleen): < 0.2 pmol/mg; Activity [11]: Active; Activity (Splenocyte [16]): inactive; Activity (Lymphocyte [13]): Active; Activity (Jurkat [17]): Active; Activity (Lymphocyte [18]): inactive; Activity (Lymphocyte [19]): Active; Activity (Jurkat [20]): Active; Activity [21]: < 0.2 pmol/mg; Activity (Jurkat [22]): Active; Activity (Splenocyte [23]): Active; Activity (Jurkat [24]): inactive; Activity (Jurkat [14]): Active |
